Measurements reported in US11510931B2, “Compositions and methods for treating ophthalmic conditions” (MEDICON PHARMACEUTICALS, INC., priority 2016, dated 2022).

Columns and labels:
[1] = system: MMPs; test: General MMP activity in rabbit cornea (FRET peptide); type: in vivo
Procedure: The general activity of MMPs was determined in the corneas of three groups of rabbits. This MMP activity assay employs a fluorescence resonance energy transfer (FRET) peptide as a generic MMP indicator. Rabbits were treated with PS 1.6% or ketorolac 0.5% eye drops topically applied to their eyes or were not treated (naïve group). Results in relative fluorescence units (RFU)/mg protein (mean±SEM). Naïve=1,328±123; PS=749±218; Ketoroloac=1,272±106 (p<0.03 vs PS).
In an acute experiment, naïve rabbits were treated with either PS or ketorolac (both administered topically) for 1 h and determined the activity of MMP in the cornea. This assay determines the activity of MMPs collectively in a given tissue.

[2] = system: eyes of rabbits; test: Safety of topically applied PS in rabbits (toxicity, intraocular pressure, corneal melt, slit lamp); type: in vivo, rabbit
Excerpt: The Safety of Topically Applied PS.

[3] = system: NF-κB; test: NF-κB activation by EMSA in TNF-α-stimulated human conjunctival cells; type: cell-based; conditions: PS 5 h then TNF-α 10 ng/ml 1 h, FIG. 6A
Excerpt: The Mechanism of Action of PS in Dry Eye. Tissue culture, animal and human studies have established inflammation as the core mechanism of DED^8. To determine the mechanism of action of PS in DED the response to PS of several factors known to play an important role in the inflammation associated with DED was explored. They include NF-κB; the cytokines TGF-β, IL-1 β, IL-6 and IL-8; the collagenases MMP-1 and MMP-9; and PGE2. In these studies we used human conjunctival epithelial cells, the Wong-Kilbourne derivative of Chang conjunctival cells (clone 1 to 5c-41 American Type Culture Collection (Manassas, Va.) certified cell line, 20.2).
Human conjunctival cells were treated with various concentrations of PS. Five hours later, TNF-α was added to the culture medium to a final concentration of 10 ng/ml and the status of NF-κB activation was determined by EMSA 1 h later. […] Similarly, after 1 week of treatment, PS suppressed NF-κB activation in the ILG of rabbits with DED compared to those treated with vehicle.

[4] = system: concanavalin A-induced dry eye in rabbits; test: Concanavalin A (Con A)-induced dry eye disease (DED) model in rabbits: TBUT, Schirmer test, tear osmolarity, tear lactoferrin; type: in vivo, rabbit
Procedure: To assess the efficacy of PS on DED an improved concanavalin A model was used. In the concanavalin A model, dry eye is induced by injecting the lacrimal glands of a mammal with concanavalin A, a selective T cell mitogen that induces a lymphocytic infiltrate in these glands. The concanavalin A model is generally described in (Barabino S. Animal models of dry eye. Arch Soc Esp Oftalmol. 2005; 80(12):693-4). Concanavalin A was injected to the lacrimal glands under ultrasound guidance, thus eliminating injections to the vicinity of the gland (as opposed to the gland itself). The head and the tail of the major lacrimal gland of the rabbit were injected separately. The dose of concanavalin A was optimized for DED signs.
In the testing described below, four markers of DED are monitored: the tear break up time (TBUT), the Schirmer test, tear osmolarity, and tear lactoferrin levels. All assays were performed at the same clock time (±1 hr) to avoid assay variability on account of circadian variations.
In an efficacy experiment using the concanavalin A model, one group of rabbits was treated with compound 5, also known as phosphosulindac and abbreviated as PS, 1.5% eye drops and one group with vehicle. […] It is thus clear that PS applied topically suppresses DED.
Con A was injected under ultrasound guidance into all the lacrimal glands and the success of the injection was verified by a post-injection ultrasound image (see FIG. 1 and FIG. 2). […] This variation explains why the blind injections recommended in the original method are often unsuccessful. This was confirmed by mixing the Con A solution with methylene blue and tracking its course after injection. In about ⅓ of the cases, Con A ended up outside the gland.
Four parameters of efficacy were evaluated instead of the usual one or two. They include (a) the tear break up time (TBUT), determined using 0.2% fluorescein over the eye and recording the time taken to develop black dots, lines or obvious disruption of the fluorescein film; (b) tear osmolarity, measured using TearLab Osmolarity Test and following the manufacturer's instructions (TearLab Corp., San Diego, Calif.); (3) Schirmer tear test (STT), determined using Schirmer strips (EagleVision, Denville, N.J.) inserted between the cornea and the palpebral conjunctiva at the mid-point of the lower lid and measuring the length of moistened strip at 5 min; and (4) tear lactoferrin levels measured by ELISA kit (MyBiosource, San Diego, Calif.) following the instructions of the manufacturer. All four have been used in clinical practice and correlate with the clinical activity of the disease. The STT is the least reliable and, as result, it is clinically used less than half as frequently as TBUT.
The injections of Con A to the lacrimal glands were repeated weekly as needed. When longer than a 1-week periods of study are needed, repeat injections prolong dry eye for at least 3 weeks, making the originally acute model chronic.
PS Suppresses Con A—Induced Dry Eye in Rabbits. The effect of PS on dry eye was determined in New Zealand White (NZW) rabbits, 2-3 kg (Charles River Labs, Waltham, Mass.). These rabbits were housed singly in rooms with strict temperature (70±5° F.) and humidity (45±5%) control and acclimated for at least 2 weeks prior to induction of dry eye by injection of Con A as above. NZW rabbits with Con A-induced dry eye (three sets of injections) were treated with PS formulated as nanoparticles and administered topically as eye drops 3×/day for 21 days, starting on the day of Con A injection. […] Similar results were obtained on days 5 and 14 (data not shown).
Using this model, we compared the effect of PS to that of cyclosporine and lifitegrast. Rabbits were treated for 6 days with PS as above or cyclosporine 0.05% or lifitegrast 5% eye drops 3×/day. In addition to determining TUBT, osmolarity and STT, we measured the levels of IL-8 and IL-1β in the ILGs of the rabbits harvested at euthanasia. […]

[5] = rabbits, 2 weeks of daily PS 3.6% eye drops
[6] = weekly during a 1-month application of PS
[7] = Baseline, PS 1.5% eye drops, Mean ± SEM
[8] = Con A DED rabbits, 6 days, eye drops 3×/day, PS nanoparticles, cyclosporine 0.05%, lifitegrast 5%, mean ± SEM
[9] = Day 13, PS 1.5% eye drops, Mean ± SEM
[10] = after 1 week of treatment, FIG. 5

## CCOP(=O)(OCC)OCCCCOC(=O)CC1=C(C)/C(=C/c2ccc([S+](C)[O-])cc2)c2ccc(F)cc21 (stereo not drawn) [PS, phosphosulindac]
[1]; naïve rabbits, topical, 1 h
  suppression of the activity of MMPs in the cornea: 43%
[1]; rabbits, PS 1.6% or ketorolac 0.5% eye drops, mean±SEM
  general activity of MMPs in the corneas: 749±218 RFU/mg protein
[2]; 1-month application of PS
  Intraocular pressure (Tonopen): remained normal
  signs of uveitis: No animal developed signs of uveitis
[2]; rabbits
  tolerability of ocular application: very well tolerated
[2]; rabbits treated for up to 3 weeks
  keratitis or corneal melting (ophthalmological examination): no evidence of keratitis or corneal melting
[2]; [5]
  intraocular pressure: no changes in intraocular pressure
  topical or systemic toxicity: no evidence of topical or systemic toxicity
[2]; [6]
  slit lamp examination: conjunctiva: no evidence of follicular/papillary response or injection of the conjunctiva
  slit lamp examination: corneal abnormalities (staining defects, vascularization, opacification, epithelial defects, stromal thinning, melts): nor were there signs of corneal abnormalities
[3]
  activation of NF-κB (EMSA): significantly suppressed
[4]; [7]
  Schirmer test: 14.6 ± 0.9 mm
  TBUT: 52.3 ± 4.6 s
  Tear lactoferrin: 3.09 ± 0.4 ng/mg protein
[4]; [8]
  Osmolarity: 294 ± 4.6 mOsm/L
  STT: 12.3 ± 0.6 mm
  TBUT: 43.6 ± 4.0 s
[4]; Day 11, PS 1.5% eye drops, Mean ± SEM
  Schirmer test: 9.5 ± 1.0 mm
[4]; [9]
  TBUT: 56.0 ± 4.0 s
  Tear lactoferrin: 3.19 ± 0.2 ng/mg protein
[4]; PS nanoparticles eye drops 3×/day for 21 days, FIG. 4
  TBUT, tear osmolarity and tear lactoferrin levels: restored to normal
[4]; PS nanoparticles eye drops 3×/day for 21 days, difference from vehicle significant only for trend, FIG. 4
  STT value: improved
[4]; [10]
  STT: no significant effect
  TBUT and osmolarity: normalized
